Results from US5349127A, “Expression of herbicide metabolizing cytochromes P450” (priority 1992, dated 1994).

Columns and labels:
[1] = tested on: S. lividans C37; experiment: Percent conversion of herbicides by cultures (Example 16); assay type: in vitro ADME, Streptomyces lividans; settings: 3.0 mg herbicide in 25 ml broth; 24 hours
Experimental: (§1) Separate cultures (50 ml) inoculated with S. lividans C37, S. lividans transformed with pCAO200SU1-FeS-B#9, S. griseolus ATCC11796, S. griseolus PH2003 transformed with pIJ425, or S. ariseolus PH2003 transformed with pCS325 were cultured in sporulation broth for 18 hours at 30° C. with shaking. Each culture was then resuspended in 25 ml fresh sporulation broth and 3.0 mg herbicide added. In the case of cultures of S. griseolus ATCC11796, a second culture containing herbicide and 3.0 mg 10001 was also prepared. Each culture was reincubated for 24 hours, then an aliquot of the medium was withdrawn and analyzed by HPLC. The percent conversion of herbicide was determined.

[2] = tested on: S. lividans pCAO200SU1-FeS-B#9; experiment: as above; assay type: in vitro ADME, Streptomyces lividans; settings: 3.0 mg herbicide in 25 ml broth; 24 hours
Experimental: as §1

[3] = tested on: transformed tobacco seedlings; experiment: Growth of transformed tobacco seed on medium with 10001 (Example 24); assay type: in vivo, Nicotiana tabacum; settings: AGS502 (no P450 gene), 100 days
Experimental: Tobacco seed from plants transformed with several P450SU1 and P450SU1+FeS-Bconstructions were tested for their ability to grow on tissue culture medium supplemented with compound 10001. Seed was placed on medium containing: 0, 5, 10, 20, and 40 nM of compound 10001. After 100 days, the plants were visually rated for their resistance (due to herbicide detoxification) to the herbicide treatment. All plants grown in the absence of herbicide and those treated with the lowest levels (5 nM and 10 nM) of 10001 had grown so large that no comparative rating was possible. The severely growth inhibited plants (those grown in the presence of 20 nM and 40 nM of compound 10001) were scored by comparing them to AGS502 plants (transformed without P450 gene) in Table 23.
SCORING SYSTEM: Visual comparison to AGS502 plants which uniformly appeared:
Ratings: 0=essentially identical to AGS 502 controls; 1=marginally larger ([…]1.2×) than AGS502; 2=clearly larger (1.2 to 2×) than AGS502; 3=substantially larger (>2×) than AGS502.

[4] = tested on: S. griseolus ATCC 11796; experiment: Western blot for cytochrome P450SU1 after induction with 10001 (Example 3); assay type: cell-based, Streptomyces griseolus; settings: 36 mg of 10001 added six hours before harvesting; not found without 10001
Experimental: Western blot analysis of proteins is performed by separating the proteins by SDS polyacrylamide gel electrophoresis (Laemmli, Nature 227: 680, 1970, herein incorporated by reference) and then transferring the proteins to nitrocellulose and detecting the protein of interest with antibody specific for the protein as described by Towbin et al., Proc. Natl. Acad. Sci. U.S.A. 76: 4350-4354 (1979) and Bio-Rad bulletin 885 85-0335. (Bio-Rad Laboratories, Richmond, CA 94804), each herein incorporated by reference. Antiserum to cytochrome P450SU1 was that described by O'Keefe et al., Recent Advances in Phytochemistry 21: 151-173 (1987), herein incorporated by reference.
S. lividans containing pCAO200, containing pCAO200SU1-FeS-B#9 and S. lividans containing […] were grown separately in 400 ml of YEME broth with-shaking at 30° C. for approximately 36 hours. S. griseolus ATCC 11796 was grown in 400 ml of sporulation broth for approximately 30 hours. Six hours before harvesting the cells from the cultures, 200 ml of YEME was added to the S. lividans cells. Six hours before harvesting, the S. griseolus culture was split into two 200 ml aliquots and 100 ml of fresh sporulation broth was added to each. […] Cytochrome P450SU1 was detected in the cultures of S. lividans transformed with either pCAO200SU1-FeS-B#9 or pCAO200SU1#12 and in the S. griseolus ATCC 11796 culture induced with 10001.

CCOC(=O)c1ccccc1S(=O)(=O)NC(=O)Nc1nc(Cl)cc(OC)n1 [compound 10001, N-[(4-chloro-6-methoxy-pyrimidin-2-yl)aminocarbonyl]-2-ethoxycarbonylbenzenesulfonamide]
Percent Conversion [1]: 0%
Percent Conversion [2]: 56%
appearance of AGS502 plants ([3]; 10001 20 nM): ~1 cm tall, 6 leaves ~1 cm diameter
appearance of AGS502 plants ([3]; 10001 40 nM): ~0.5 cm tall, 6 leaves ~0.3 cm diameter, chlorotic
Cytochrome P450SU1 in culture (Western blot) [4]: detected
